Patent publication US8497240B2 (priority 2006, dated 2013)
Read-outs that look alike come from different tables or passages of the source.

Key:
human GIP receptor = molecular target: T1, human GIP receptor (Homo sapiens, UniProt P48546); assay: biochemical; assay type: binding
T1 construct: expressed in transfected cells; host or cells: HEK293 (HEK-GIPR), membranes
T1 sequence (P48546 22-466): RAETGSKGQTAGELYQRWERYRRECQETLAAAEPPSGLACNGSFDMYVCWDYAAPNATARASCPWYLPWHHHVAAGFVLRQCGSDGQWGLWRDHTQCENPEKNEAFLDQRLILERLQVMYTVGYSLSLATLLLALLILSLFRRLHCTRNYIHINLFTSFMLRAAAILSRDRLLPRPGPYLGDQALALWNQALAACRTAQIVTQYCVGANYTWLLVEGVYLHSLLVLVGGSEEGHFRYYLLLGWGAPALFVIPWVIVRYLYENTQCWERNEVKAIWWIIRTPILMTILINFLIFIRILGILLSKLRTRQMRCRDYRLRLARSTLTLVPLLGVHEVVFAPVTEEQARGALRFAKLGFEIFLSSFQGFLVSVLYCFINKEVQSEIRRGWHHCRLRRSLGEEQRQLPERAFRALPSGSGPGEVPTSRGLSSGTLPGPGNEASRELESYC

[1] = assay type: in vivo, NIH/Swiss mice; details: 30 nmol/kg
Protocol: In FIG. 3A, bars represent mean±sd, n=6-10. […] Gavage (1.5 g/kg) was given at t=0, Sample was taken at t=30 min. […] In FIG. 3B, points represent mean±sem, n=8-15.
Peptide was injected IP at t=−5 minutes into 4-hour fasted NIH/Swiss female mice. […] In FIG. 17 points represent mean+/−sem. […] Samples were taken at t=60, t=120 and t=180.

[2] = IVGTT duration of action assay (single SC injection before glucose); assay type: in vivo, rat; details: compared with 0601GIP3794 (794), dosed at −120 min
Protocol: To determine a duration of action using the IVGTT assay, the sample was injected SC as a single injection at one time point indicated (e.g., t=−240, −120, −60 or −30) prior to administration of glucose. IV glucose was given at t=0.

[3] = read-out: (% Inh 10 nm, GIP-LF Assay)
[4] = read-out: GIP RBA (% Inh 10 nM)

With `CC[C@H](C)[C@H](NC(=O)[C@H](CO)NC(=O)[C@H](Cc1ccc(O)cc1)NC(=O)[C@H](CC(=O)O)NC(=O)[C@H](CO)NC(=O)[C@@H](NC(=O)[C@H](Cc1ccccc1)NC(=O)[C@@H](NC(=O)CNC(=O)[C@H](CCC(=O)O)NC(=O)[C@@H](C)NC(=O)[C@@H](N)Cc1ccc(O)cc1)[C@@H](C)O)[C@@H](C)CC)C(=O)N[C@@H](C)C(=O)N[C@@H](CCSC)C(=O)N[C@@H](CC(=O)O)C(=O)N[C@@H](CCCCN)C(=O)N[C@H](C(=O)N[C@@H](Cc1c[nH]cn1)C(=O)N[C@@H](CCC(N)=O)C(=O)N[C@@H](CCC(N)=O)C(=O)N[C@@H](CC(=O)O)C(=O)N[C@@H](Cc1ccccc1)C(=O)N[C@H](C(=O)N[C@@H](CC(N)=O)C(=O)N[C@@H](Cc1c[nH]c2ccccc12)C(=O)N[C@@H](CC(C)C)C(=O)N[C@@H](CC(C)C)C(=O)N[C@@H](C)C(=O)N[C@@H](CCC(N)=O)C(=O)N[C@@H](CCCCN)C(=O)N1CCC[C@H]1C(=O)N[C@@H](C)C(=O)N[C@@H](CCCCN)C(=O)N[C@H](C(=O)N[C@@H](CCCNC(=N)N)C(=O)N[C@@H](Cc1ccc(O)cc1)C(=O)N[C@@H](CO)C(N)=O)[C@@H](C)CC)C(C)C)[C@@H](C)CC` [Compound 0601GIP4815] the inhibition at 0.01 µM (human GIP receptor; [3]) was 89%, the inhibition at 0.01 µM (human GIP receptor; [4]) was 89% and the “OGTT/GL (%)” value [1] was −23, %. For the same compound, the “Duration In The Rat IVGTT Assay” value [2] was <794@ −120 min.

In the case of `CC[C@H](C)[C@H](NC(=O)[C@H](CO)NC(=O)[C@H](Cc1ccc(O)cc1)NC(=O)[C@H](CC(=O)O)NC(=O)[C@H](CO)NC(=O)[C@@H](NC(=O)[C@H](Cc1ccccc1)NC(=O)[C@@H](NC(=O)CNC(=O)[C@H](CCC(=O)O)NC(=O)[C@@H](C)NC(=O)[C@@H](N)Cc1ccc(O)cc1)[C@@H](C)O)[C@@H](C)CC)C(=O)N[C@@H](C)C(=O)N[C@@H](CCSC)C(=O)N[C@@H](CC(=O)O)C(=O)N[C@@H](CCCCN)C(=O)N[C@H](C(=O)N[C@@H](Cc1c[nH]cn1)C(=O)N[C@@H](CCC(N)=O)C(=O)N[C@@H](CCC(N)=O)C(=O)N[C@@H](CC(=O)O)C(=O)N[C@@H](Cc1ccccc1)C(=O)N[C@H](C(=O)N[C@@H](CC(N)=O)C(=O)N[C@@H](Cc1c[nH]c2ccccc12)C(=O)N[C@@H](CC(C)C)C(=O)N[C@@H](CC(C)C)C(=O)N[C@@H](C)C(=O)N[C@@H](CCC(N)=O)C(=O)N[C@@H](CCCCN)C(=O)N1CCC[C@H]1C(=O)N[C@@H](CCCCN)C(=O)N[C@@H](CCCCN)C(=O)N[C@@H](CC(C)C)C(=O)N[C@@H](CCCCN)C(=O)N1CCC[C@H]1C(=O)N[C@@H](CO)C(N)=O)C(C)C)[C@@H](C)CC` [Compound 0601GIP4822], the inhibition at 0.01 µM (human GIP receptor; [3]) is reported as 95.4%, the inhibition at 0.01 µM (human GIP receptor; [4]) is reported as 95.4% and the “OGTT/GL (%)” value [1] is reported as −23, %. The “Duration In The Rat IVGTT Assay” value [2] was <794@ −120 min.

With `CC[C@H](C)[C@H](NC(=O)[C@H](CO)NC(=O)[C@H](Cc1ccc(O)cc1)NC(=O)[C@H](CC(=O)O)NC(=O)[C@H](CO)NC(=O)[C@@H](NC(=O)[C@H](Cc1ccccc1)NC(=O)[C@@H](NC(=O)CNC(=O)[C@H](CCC(=O)O)NC(=O)[C@@H](C)NC(=O)[C@@H](N)Cc1ccc(O)cc1)[C@@H](C)O)[C@@H](C)CC)C(=O)N[C@@H](C)C(=O)N[C@@H](CCSC)C(=O)N[C@@H](CC(=O)O)C(=O)N[C@@H](CCCCN)C(=O)N[C@H](C(=O)N[C@@H](Cc1c[nH]cn1)C(=O)N[C@@H](CCC(N)=O)C(=O)N[C@@H](CCC(N)=O)C(=O)N[C@@H](CC(=O)O)C(=O)N[C@@H](Cc1ccccc1)C(=O)N[C@H](C(=O)N[C@@H](CC(N)=O)C(=O)N[C@@H](Cc1c[nH]c2ccccc12)C(=O)N[C@@H](CC(C)C)C(=O)N[C@@H](CC(C)C)C(=O)N[C@@H](C)C(=O)N[C@@H](CCC(N)=O)C(=O)N[C@@H](CCCCN)C(=O)N1CCC[C@H]1C(=O)N[C@@H](CCC(N)=O)C(=O)N[C@@H](CCCCN)C(=O)N[C@H](C(=O)N[C@@H](CCCNC(=N)N)C(=O)N[C@@H](Cc1ccc(O)cc1)C(=O)N[C@@H](CO)C(N)=O)[C@@H](C)CC)C(C)C)[C@@H](C)CC` [Compound 0601GIP4853] the inhibition at 0.01 µM (human GIP receptor; [3]) was 91%, the “OGTT/GL (%)” value [1] was −25, % and the “Duration In The Rat IVGTT Assay” value [2] was <794@ −120 min.
